± gives the expanded uncertainty stated by the source.
Columns and labels:
[1] = refractive index (Na D-line) (dimensionless); an = ratio of the nth substance listed; conditions: 100 kPa, Liquid, Standard Abbe refractometry, a1 = 2
[2] = an = ratio of the nth substance listed; conditions: 100 kPa, Liquid, a1 = 2; for viscosity: Falling or rolling sphere viscometry; for speed of sound: Sing-around technique in a fixed-path interferometer; for mass density: Vibrating tube method
[3] = 100 kPa, Liquid; for viscosity: Falling or rolling sphere viscometry; for speed of sound: Sing-around technique in a fixed-path interferometer; for mass density: Vibrating tube method
[4] = refractive index (Na D-line) (dimensionless); conditions: 100 kPa, Liquid, Standard Abbe refractometry

A refractive index ([1]; 293.15 K) of 1.46987 ± 0.00034, a refractive index ([1]; 298.15 K) of 1.46867 ± 0.00034 and a refractive index ([1]; 303.15 K) of 1.4673 ± 0.00034 were found for `CC(=O)CCC(=O)O` [4-oxopentanoic acid] + C[N+](C)(C)CCO.[Cl-] in this work. The refractive index ([1]; 308.15 K) was 1.46595 ± 0.00034, the refractive index ([1]; 313.15 K) was 1.46457 ± 0.00034 and the refractive index ([1]; 318.15 K) was 1.4632 ± 0.00034. For the same molecule, the refractive index ([1]; 323.15 K) was 1.4618 ± 0.00034, the refractive index ([1]; 328.15 K) was 1.46041 ± 0.00034 and the refractive index ([1]; 333.15 K) was 1.45902 ± 0.00034. For the same molecule, the refractive index ([1]; 338.15 K) was 1.45761 ± 0.00034, the refractive index ([1]; 343.15 K) was 1.45623 ± 0.00034 and the viscosity ([2]; 293.15 K) was 365.3 ± 24 mPa·s. The speed of sound ([2]; 293.15 K) was 1764 ± 2 m/s, the mass density ([2]; 293.15 K) was 1141.05 ± 1.2 kg/m3 and the viscosity ([2]; 298.15 K) was 255.8 ± 14 mPa·s. It also gave a speed of sound ([2]; 298.15 K) of 1749 ± 2 m/s, a mass density ([2]; 298.15 K) of 1137.7 ± 1.2 kg/m3 and a viscosity ([2]; 303.15 K) of 185.5 ± 8.2 mPa·s. It also gave a speed of sound ([2]; 303.15 K) of 1734 ± 2 m/s, a mass density ([2]; 303.15 K) of 1134.34 ± 1.1 kg/m3 and a viscosity ([2]; 308.15 K) of 136.5 ± 4.6 mPa·s. For the same molecule, the speed of sound ([2]; 308.15 K) was 1720 ± 2 m/s, the mass density ([2]; 308.15 K) was 1130.99 ± 1.1 kg/m3 and the viscosity ([2]; 313.15 K) was 103.7 ± 2.6 mPa·s. It also gave a speed of sound ([2]; 313.15 K) of 1707 ± 2 m/s, a mass density ([2]; 313.15 K) of 1127.63 ± 1.1 kg/m3 and a viscosity ([2]; 318.15 K) of 81.5 ± 1.5 mPa·s. The speed of sound ([2]; 318.15 K) was 1693 ± 2 m/s, the mass density ([2]; 318.15 K) was 1124.3 ± 1.1 kg/m3 and the viscosity ([2]; 323.15 K) was 64.8 ± 0.9 mPa·s. For the same molecule, the speed of sound ([2]; 323.15 K) was 1680 ± 2 m/s, the mass density ([2]; 323.15 K) was 1120.98 ± 1.1 kg/m3 and the viscosity ([2]; 328.15 K) was 51.7 ± 0.6 mPa·s. It also gave a speed of sound ([2]; 328.15 K) of 1667 ± 2 m/s, a mass density ([2]; 328.15 K) of 1117.68 ± 1.1 kg/m3 and a viscosity ([2]; 333.15 K) of 43 ± 0.6 mPa·s. It also gave a speed of sound ([2]; 333.15 K) of 1654 ± 2 m/s, a mass density ([2]; 333.15 K) of 1114.69 ± 1.1 kg/m3 and a viscosity ([2]; 338.15 K) of 34.1 ± 0.4 mPa·s. For the same molecule, the speed of sound ([2]; 338.15 K) was 1641 ± 2 m/s, the mass density ([2]; 338.15 K) was 1111.41 ± 1.1 kg/m3 and the viscosity ([2]; 343.15 K) was 28.6 ± 0.4 mPa·s. For the same molecule, the speed of sound ([2]; 343.15 K) was 1628 ± 2 m/s and the mass density ([2]; 343.15 K) was 1108.1 ± 1.1 kg/m3.

A viscosity ([3]; 298.15 K) of 2.568 ± 0.032 mPa·s, a speed of sound ([3]; 298.15 K) of 1240 ± 2 m/s and a mass density ([3]; 298.15 K) of 805.75 ± 0.81 kg/m3 were found for `CCCCO` [butan-1-ol] in this work. For the same molecule, the viscosity ([3]; 308.15 K) was 1.998 ± 0.025 mPa·s, the speed of sound ([3]; 308.15 K) was 1206 ± 2 m/s and the mass density ([3]; 308.15 K) was 798.06 ± 0.81 kg/m3. It also gave a viscosity ([3]; 318.15 K) of 1.578 ± 0.019 mPa·s, a speed of sound ([3]; 318.15 K) of 1173 ± 2 m/s and a mass density ([3]; 318.15 K) of 790.22 ± 0.8 kg/m3. For the same molecule, the refractive index ([4]; 298.15 K) was 1.39697 ± 0.00031, the refractive index ([4]; 308.15 K) was 1.39281 ± 0.00031 and the refractive index ([4]; 318.15 K) was 1.38857 ± 0.00031.

A viscosity ([3]; 298.15 K) of 1.083 ± 0.013 mPa·s, a speed of sound ([3]; 298.15 K) of 1143 ± 2 m/s and a mass density ([3]; 298.15 K) of 785.06 ± 0.79 kg/m3 were found for `CCO` [ethanol] in this work. For the same molecule, the viscosity ([3]; 308.15 K) was 0.901 ± 0.011 mPa·s, the speed of sound ([3]; 308.15 K) was 1109 ± 2 m/s and the mass density ([3]; 308.15 K) was 776.4 ± 0.78 kg/m3. For the same molecule, the viscosity ([3]; 318.15 K) was 0.758 ± 0.009 mPa·s, the speed of sound ([3]; 318.15 K) was 1075 ± 2 m/s and the mass density ([3]; 318.15 K) was 767.6 ± 0.78 kg/m3. For the same molecule, the refractive index ([4]; 298.15 K) was 1.35905 ± 0.00031, the refractive index ([4]; 308.15 K) was 1.35501 ± 0.00031 and the refractive index ([4]; 318.15 K) was 1.35083 ± 0.00031.

A viscosity ([3]; 298.15 K) of 3.502 ± 0.044 mPa·s, a speed of sound ([3]; 298.15 K) of 1276 ± 2 m/s and a mass density ([3]; 298.15 K) of 810.88 ± 0.82 kg/m3 were found for `CCCCCO` [pentan-1-ol] in this work. For the same molecule, the viscosity ([3]; 308.15 K) was 2.662 ± 0.034 mPa·s, the speed of sound ([3]; 308.15 K) was 1242 ± 2 m/s and the mass density ([3]; 308.15 K) was 803.5 ± 0.82 kg/m3. The viscosity ([3]; 318.15 K) was 2.061 ± 0.026 mPa·s, the speed of sound ([3]; 318.15 K) was 1209 ± 2 m/s and the mass density ([3]; 318.15 K) was 795.98 ± 0.81 kg/m3. The refractive index ([4]; 298.15 K) was 1.40752 ± 0.00033, the refractive index ([4]; 308.15 K) was 1.40352 ± 0.00033 and the refractive index ([4]; 318.15 K) was 1.39942 ± 0.00033.

A viscosity ([3]; 298.15 K) of 1.943 ± 0.024 mPa·s, a speed of sound ([3]; 298.15 K) of 1209 ± 2 m/s and a mass density ([3]; 298.15 K) of 799.69 ± 0.81 kg/m3 were found for `CCCO` [propan-1-ol] in this work. It also gave a viscosity ([3]; 308.15 K) of 1.549 ± 0.019 mPa·s, a speed of sound ([3]; 308.15 K) of 1175 ± 2 m/s and a mass density ([3]; 308.15 K) of 792.76 ± 0.8 kg/m3. For the same molecule, the viscosity ([3]; 318.15 K) was 1.252 ± 0.016 mPa·s, the speed of sound ([3]; 318.15 K) was 1141 ± 2 m/s and the mass density ([3]; 318.15 K) was 784.45 ± 0.79 kg/m3. For the same molecule, the refractive index ([4]; 298.15 K) was 1.38275 ± 0.00032, the refractive index ([4]; 308.15 K) was 1.37857 ± 0.00032 and the refractive index ([4]; 318.15 K) was 1.37421 ± 0.00032.
